Read-outs that look alike come from different tables or passages of the source.
What was measured:
[1] = Adverse reaction assessment in test cats (body weight, behavior, coat gloss); type: in vivo; details: all tested cats, i.v. 1 mg/kg BW and p.o. 0.2–2 mg/kg BW, single dose
Method: In this study, a parallel trial design was employed, 42 adult domestic cats (21 males and 21 females), aged 1 to 2 years and weighing 2.5 ± 0.25 kg. Cats were grouped by random number, with half male and female in each group, and all cats were determined to be systemically healthy during an initial screening visit 1 week prior to the experiment. They were acclimatized to the laboratory environment for 7 days before the study commenced. During this period, they were kept in solitary cages with free access to water. Cats in the fasting group were deprived of food for 12 h prior to and 2 h following drug administration, while those in the feeding group were fed twice a day. Food and water sources were consistent throughout the trail. During and at the end of the experiment, we systematically assessed the adverse reactions by recording parameters such as body weight, behavior, and coat gloss in all test cats both before and after the trial. These observations were conducted to evaluate whether any adverse reactions occurred. All procedures were reviewed and approved by the Institutional Animal Care and Use Committee of China Agricultural University (11305-23-E-002).

pKa (unpublished data) = type: physicochemical; details: weak base
[2] = Solubility of KPT-335 (pH dependence, unpublished data); type: physicochemical
[3] = cat, in vivo
Method: Based on the dose administered in dogs, the selection of dosages for evaluating KPT-335 in cats was calculated using the Km factor, which adjusts drug doses across species based on body surface area (BSA) ([16]). […] For oral (p.o.) administration, single doses of 1 mg/kg BW and 2 mg/kg BW were tested across two groups. Additionally, an oral capsule group was administered at 0.2 mg/kg BW. […] The maximum safe dosage for dogs was determined to be 1.75 mg/kg BW, based on dosage conversion, the maximum safe dosage for cats was determined to be 2.33 mg/kg BW. Thus, we categorized the dosages as follows: 2 mg/kg BW was designated as the oral high-dose group, 1 mg/kg BW as the oral medium-dose group, and 0.2 mg/kg BW (1/10 of the recommended dose) as the oral low-dose group. These doses were determined based on the maximum safe dose in dogs and the solubility limitations of the drug. The smallest commercially available tablet contained 2.5 mg of KPT-335 and could not be divided, which meant that only whole tablets could be administered. Consequently, the 0.2 mg/kg BW dose could not be accurately achieved and was excluded from the tablet group trials. Only the 1 mg/kg BW and 2 mg/kg BW doses were included in the tablet groups. […]

[4] = cited from earlier work
[5] = dogs; cited from earlier work
[6] = dogs, orally 1.25 mg/kg BW (n = 4) ref 13
[7] = dogs, orally 1.5 mg/kg BW (n = 4) ref 13
[8] = healthy dogs, phase I study, 1.5 mg/kg BW ref 9

O=C(/C=C\n1cnc(-c2cc(C(F)(F)F)cc(C(F)(F)F)c2)n1)NNc1ccccn1 [KPT-335]
adverse reactions [1]: no adverse reactions | pKa (pKa (unpublished data)): 10.6 | aqueous solubility [2]: low aqueous solubility | lower solubility at pH 3.8 versus pH 1.5 ([2]; unpublished data): 50 fold | maximum safe dosage [3]: 2.33 mg/kg BW | AUClast ([4]; dogs, 1.5 mg/kg BW ref 9, 13): 1800–2,300 h·ng/mL | Cmax ([4]; dogs, 1.5 mg/kg BW ref 9, 13): 250 to 310 ng/mL | half-life ([4]; dogs, 1.5 mg/kg BW ref 9, 13): approximately 4 h | mean AUC [4, 6]: 1576.6 ng·h/mL | mean Cmax [4, 6]: 244.8 ng/mL | mean AUC [4, 7]: 2346.8 ng·h/mL | mean Cmax [4, 7]: 312 ng/mL | AUClast [4, 8]: 1760 ± 223 ng·h/mL | Cmax [4, 8]: 253 ± 88.3 ng/mL | T1/2 [4, 8]: 3.88 ± 2.71 h | maximum safe dosage [5]: 1.75 mg/kg BW
